The source of these data is US4879384A, “Preparation of thiocycloalkno [3,2-b] pyridines” (Ortho Pharmaceutical Corporation, priority 1988, dated 1989).

One assay addresses T1, calcium channels (Oryctolagus cuniculus, UniProt P15381).
T1 construct: from tissue; host or cells: rabbit heart membranes (female New Zealand white rabbits; 42,000 xg pellet)
Description: Inhibition of nitrendipine binding to calcium channels. The conditions noted are these: for IC50: Table II. Format: New Zealand white rabbit (heart membranes). The procedure: (1) Inhibition of nitrendipine binding to calcium channels.
The assay for inhibition of nitrendipine binding follows the following procedure:
Female, New Zealand white rabbits (1-2 kg) are sacrificed by cervical dislocation, and the heart is immediately removed, cleaned, and chopped into small pieces. The tissue is homogenized in 5X volume of 0.05M Hepes buffer, pH 7.4. The homogenate is centrifuged at 4000 xg for 10 minutes; the supernatant is recentrifuged at 42,000 xg for 90 minutes. The resulting membrane pellet is resuspended (0.7 ml/g weight) in 0.05M Hepes, pH 7.4 and stored at -70° C. until used. Each tube of the binding assay contains ^3 H-nitrendipine (0.05-0.50nM), buffer, membranes (0.10 ml), and test compound in a total volume of 1.0 ml. After 90 minutes at 4° C., the bound nitrendipine is separated from the unbound by filtration on Whatman GF/C fibers. After rinsing, the filters are dried and counted in a liquid scintillation counter.
Non-specific binding of ^3 H-nitrendipine (that amount bound in the presence of excess unlabelled nitrendipine) is subtracted from the total bound to obtain specifically bound radiolabeled nitrendipine. The amount of specifically bound nitrendipine in the presence of a test compound is compared to that amount bound in the absence of a compound. A percent displacement (or inhibition) can then be obtained.

The next assay has as its system Trachea Muscle. Nature of the assay: Inhibition of calcium dependent smooth muscle contraction (trachea). The format is cell-based, dog. The conditions noted are these: Table II; concentration 0.3 μM. The procedure:
The test for inhibition of calcium dependent smooth muscle contraction is determined according to the following procedure:
Trachea from dogs sacrificed by excess KCl injection are stored overnight at 4° C. in oxygenated Krebs-Henseleit buffer. Tracheal rings, one cartilage segment wide (5-10 mm), are cut starting from the bronchial end. After cutting the cartilage, the trachealis muscle tissue is suspended in oxygenated Krebs-Henseleit buffer at 37° C. in a 25 ml tissue bath. After a 60 minutes equilibration period, the tissues are challenged with 10 uM carbachol. After 5 minutes the tissues are rinsed and allowed to rest 50 minutes. The tissues are then challenged with 50 mM KCl and, after 30 minutes, the contractions are quantitated. The tissues are then rinsed and reequilibrated for 50 minutes. Test compounds are then added for 10 minutes, and the tissue is rechallenged with 50 mMKcl. After 30 minutes, the contraction is recorded and used to determine the % inhibition of control.
The percent inhibition of smooth muscle contracting is calculated from response data before and after drug treatment. [formula] A rating is assigned to the compound depending upon the percent inhibition obtained.

Where two headings read alike, the source gives them in different places.

T1 sequence (P15381 whole entry, other chains not shown): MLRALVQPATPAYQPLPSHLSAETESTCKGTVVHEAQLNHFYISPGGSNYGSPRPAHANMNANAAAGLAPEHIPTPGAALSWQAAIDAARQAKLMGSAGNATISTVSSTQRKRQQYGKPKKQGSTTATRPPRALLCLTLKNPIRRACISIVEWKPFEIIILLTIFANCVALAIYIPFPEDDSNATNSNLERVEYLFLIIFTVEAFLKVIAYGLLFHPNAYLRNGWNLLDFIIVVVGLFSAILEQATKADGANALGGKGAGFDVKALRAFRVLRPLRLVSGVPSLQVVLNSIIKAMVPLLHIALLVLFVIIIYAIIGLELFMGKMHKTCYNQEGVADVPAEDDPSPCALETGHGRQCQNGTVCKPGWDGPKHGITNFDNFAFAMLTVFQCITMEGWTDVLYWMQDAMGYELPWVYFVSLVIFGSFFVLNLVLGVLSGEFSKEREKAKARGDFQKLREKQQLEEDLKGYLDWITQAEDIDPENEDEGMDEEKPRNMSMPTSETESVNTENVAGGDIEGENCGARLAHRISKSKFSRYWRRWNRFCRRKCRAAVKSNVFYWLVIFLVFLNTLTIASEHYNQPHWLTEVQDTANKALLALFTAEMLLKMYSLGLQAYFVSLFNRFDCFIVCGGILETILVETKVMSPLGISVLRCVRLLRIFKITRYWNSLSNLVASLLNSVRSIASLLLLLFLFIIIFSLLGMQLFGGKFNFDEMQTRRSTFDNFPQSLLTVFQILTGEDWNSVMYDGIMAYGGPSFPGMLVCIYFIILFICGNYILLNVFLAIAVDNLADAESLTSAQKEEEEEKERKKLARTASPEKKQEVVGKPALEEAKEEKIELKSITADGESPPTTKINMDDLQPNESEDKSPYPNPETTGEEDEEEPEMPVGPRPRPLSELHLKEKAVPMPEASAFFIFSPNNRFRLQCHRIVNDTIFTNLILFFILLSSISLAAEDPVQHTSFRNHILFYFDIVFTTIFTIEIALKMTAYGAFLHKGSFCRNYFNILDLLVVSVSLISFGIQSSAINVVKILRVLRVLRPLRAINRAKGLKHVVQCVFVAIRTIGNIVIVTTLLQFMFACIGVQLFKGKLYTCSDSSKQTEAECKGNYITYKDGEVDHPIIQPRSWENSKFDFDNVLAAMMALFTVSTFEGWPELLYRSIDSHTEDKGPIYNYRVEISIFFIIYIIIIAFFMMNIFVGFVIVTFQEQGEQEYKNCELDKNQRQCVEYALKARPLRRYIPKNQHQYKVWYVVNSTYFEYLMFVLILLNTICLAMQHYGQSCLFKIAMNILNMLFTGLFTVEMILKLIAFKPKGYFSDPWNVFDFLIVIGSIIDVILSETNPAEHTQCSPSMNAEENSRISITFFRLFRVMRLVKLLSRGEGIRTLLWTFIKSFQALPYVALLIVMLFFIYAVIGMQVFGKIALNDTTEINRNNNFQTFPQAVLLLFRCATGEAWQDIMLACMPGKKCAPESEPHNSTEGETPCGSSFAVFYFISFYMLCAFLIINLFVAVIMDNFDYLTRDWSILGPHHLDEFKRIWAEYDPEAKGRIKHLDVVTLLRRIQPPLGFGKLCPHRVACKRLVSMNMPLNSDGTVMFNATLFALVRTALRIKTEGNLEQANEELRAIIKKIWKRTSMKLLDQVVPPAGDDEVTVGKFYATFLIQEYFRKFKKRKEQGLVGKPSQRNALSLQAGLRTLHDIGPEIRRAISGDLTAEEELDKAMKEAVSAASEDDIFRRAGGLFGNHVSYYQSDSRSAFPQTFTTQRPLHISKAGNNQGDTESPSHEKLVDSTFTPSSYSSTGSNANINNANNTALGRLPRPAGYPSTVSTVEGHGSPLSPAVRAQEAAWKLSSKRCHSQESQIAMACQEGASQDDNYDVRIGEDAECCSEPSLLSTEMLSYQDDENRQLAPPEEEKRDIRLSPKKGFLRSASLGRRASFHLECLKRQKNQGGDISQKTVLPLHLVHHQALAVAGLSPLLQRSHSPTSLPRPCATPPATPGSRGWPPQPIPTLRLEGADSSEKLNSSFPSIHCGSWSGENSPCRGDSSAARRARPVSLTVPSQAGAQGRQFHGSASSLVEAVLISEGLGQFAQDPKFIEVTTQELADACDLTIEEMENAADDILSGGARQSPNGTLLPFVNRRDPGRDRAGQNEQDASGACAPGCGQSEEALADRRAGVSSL
T1 sequence (P13806 27-960 partner limits assumed, other chains not shown): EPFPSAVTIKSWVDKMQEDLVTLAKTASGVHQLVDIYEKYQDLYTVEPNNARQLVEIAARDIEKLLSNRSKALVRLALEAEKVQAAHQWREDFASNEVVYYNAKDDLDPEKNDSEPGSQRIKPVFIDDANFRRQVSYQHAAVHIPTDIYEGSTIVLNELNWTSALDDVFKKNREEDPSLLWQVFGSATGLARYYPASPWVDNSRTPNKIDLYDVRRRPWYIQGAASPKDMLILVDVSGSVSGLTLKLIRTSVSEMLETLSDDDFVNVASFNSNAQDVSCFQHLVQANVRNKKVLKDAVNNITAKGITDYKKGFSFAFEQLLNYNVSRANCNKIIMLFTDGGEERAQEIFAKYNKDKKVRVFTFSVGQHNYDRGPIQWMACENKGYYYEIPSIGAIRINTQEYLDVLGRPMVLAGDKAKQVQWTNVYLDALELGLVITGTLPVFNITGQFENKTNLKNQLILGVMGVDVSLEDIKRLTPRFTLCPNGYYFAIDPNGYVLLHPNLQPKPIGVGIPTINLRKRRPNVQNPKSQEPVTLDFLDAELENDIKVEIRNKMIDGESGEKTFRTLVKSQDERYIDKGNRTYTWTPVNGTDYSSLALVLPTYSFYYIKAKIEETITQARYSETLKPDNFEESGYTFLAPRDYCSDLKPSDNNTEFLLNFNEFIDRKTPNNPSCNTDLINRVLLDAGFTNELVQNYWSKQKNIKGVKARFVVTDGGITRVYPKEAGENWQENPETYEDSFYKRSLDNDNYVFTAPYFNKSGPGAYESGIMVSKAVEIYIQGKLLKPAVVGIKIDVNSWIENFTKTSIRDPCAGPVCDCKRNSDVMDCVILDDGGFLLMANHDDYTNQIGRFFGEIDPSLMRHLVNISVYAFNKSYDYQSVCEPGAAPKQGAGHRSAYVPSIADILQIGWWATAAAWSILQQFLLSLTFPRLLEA
T1 sequence (P13806 961-1106 partner limits assumed, other chains not shown): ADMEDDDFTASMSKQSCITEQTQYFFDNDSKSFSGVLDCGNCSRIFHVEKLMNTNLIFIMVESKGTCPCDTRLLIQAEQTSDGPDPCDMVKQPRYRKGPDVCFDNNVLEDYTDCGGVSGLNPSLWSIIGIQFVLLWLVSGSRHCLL

Take `CC1=C(C(=O)OCCN(C)Cc2ccccc2)C(c2ccccc2[N+](=O)[O-])C2=C(CCCCCS2(=O)=O)N1` (stereo not shown) [5 2-NO2 C6 H4 CH2 CH2 NCH3 CH2 C6 H5]: the IC50 on calcium channels (second part, read-out: Inhibition Nitrendipine binding IC^50) was found to be 110 nM.
With `COC(=O)C1=C(C)NC2(O)CCS(=O)(=O)C2C1c1ccccc1[N+](=O)[O-]` (stereo not shown) [Methyl 2,3,3a,4,7,7a-hexahydro-3a-hydroxy-5-methyl-7-(2-nitrophenyl)-1,1-dioxo-thieno[3,2-b]pyridine-6-carboxylate], the “Inhibition of Nitrendipine binding (percent at stated concentration)” value at calcium channels (Table I, @ 8.0) is given as 56%.
In the case of `CCOC(=O)C1=C(C)NC2=C(C1c1cccnc1SC)S(=O)(=O)CCCCC2` (stereo not shown) [drawing 8 CH2 CH3], the IC50 at calcium channels (first part, read-out: Inhibition of Nitrendipine binding IC50) turned out to be 108 nM. Moreover, in the assay with Trachea Muscle, the “Inhibition of Trachea Muscle Contraction, % Inhibition” value amounted to 79%.
